According to patent US20240246981A1, “[…] DERIVATIVES AS INHIBITORS OF […]-PEPTIDE CYCLOTRANSFERASE AND […]-PEPTIDE CYCLOTRANSFERASE LIKE PROTEIN” (Boehringer Ingelheim International GmbH, priority 2022, published 2024):

system: SIRPα signalling induced by A549 cells; assay: Assay B: SIRPα signalling assay using A549 cells; assay type: cell-based, human; details: Homo sapiens, compounds of the invention, Table 4, read-out: Inhibition of SIRα signalling induced by A549 cells: IC50
Procedure: Two cell types are independently used: the Raji cell line (lymphoblastlike human cell line derived from B lymphocytes from a Burkitt's lymphoma patient in 1963) and A549 cells (adenocarcinomic human alveolar basal epithelial cells).
Test compounds were dissolved in 100% DMSO and serially diluted into a white 384-well microtiter cell culture plate (PerkinElmer #60076780 in case of Raji assay; PDL-coated plates Greiner #781945 in case of A549 assay). 5000 Raji cells (ATCC #CC86) or 5000 A549 cells (ATCC #CCL-185) in Assay Complete Cell Plating reagent 30 (DiscoverX 93-0563R30B) were added per well. The assay plate was incubated for 48 h at 37° C., 95% humidity and 5% CO2. 15000 reporter cells (Jurkat PathHunter SIRPα V1, DiscoverX #93-1135C19) were added to each well, and the plate was incubated for 5 h at 37° C., 95% humidity and 5% CO2. Bioassay reagent 1 of the PathHunter Bioassay detection kit (DiscoverX 93-0001) was added to each well of the plate using a multichannel pipette followed by a 15 min incubation at room temperature. Afterwards bioassay reagent 2 was added followed by 60 min incubation at room temperature (incubation in the dark).
The analysis of the data was performed using the luminescence signal generated by beta-galactosidase in the PathHunter reporter cell line. The luminescence measurement was done using a Pherastar Multi-Mode Reader. Dose-response curves & IC50 data were calculated with 4-parameter sigmoidal dose response formula.

Row | SMILES | IC50 [nM]
1 | Cn1cnnc1C1CCN(c2c(C#N)cccc2-c2cncnc2)CC1 [compound 13] | 165
2 | Cn1cnnc1C1CCN(c2c(C#N)cccc2-c2cncc(C3CC3)c2)CC1 [compound 15] | 303
3 | COc1cncc(-c2cccc(C#N)c2N2CCC(c3nncn3C)CC2)c1 [compound 16] | 332
4 | Cn1cnnc1C1CCN(c2c(C#N)cccc2-c2cncc(F)c2)CC1 [compound 17] | 199
5 | Cn1cnnc1C1CCN(c2c(C#N)cccc2-c2ccc(Cl)nc2)CC1 [compound 18] | 294
6 | CC(C)Oc1cc(-c2cccc(C#N)c2N2CCC(c3nncn3C)CC2)cnc1F [compound 19] | 18
7 | Cn1cnnc1C1CCN(c2c(C#N)cccc2-c2cnc(F)c(F)c2)CC1 [compound 20] | 53
8 | Cn1cc2cc(-c3cccc(C#N)c3N3CCC(c4nncn4C)CC3)cnc2n1 [compound 22] | 114
9 | Cn1cnnc1C1CCN(c2c(C#N)cccc2-c2cnc3c(c2)NCCO3)CC1 [compound 24] | 177
10 | Cn1cnnc1C1CCN(c2c(C#N)cccc2-c2cnc3c(c2)OCO3)CC1 [compound 25] | 339
11 | Cn1cnnc1C1CCN(c2c(C#N)cccc2-c2cnc3n[nH]cc3c2)CC1 [compound 26] | 382

target: QPCT (Homo sapiens (Human), UniProt Q16769); assay: Assay A: biochemical QPCT activity assay (MALDI-TOF MS); details: compounds of the invention, Table 2; read-out: Inhibition of QPCT: IC50
Sequence (Q16769 29-361): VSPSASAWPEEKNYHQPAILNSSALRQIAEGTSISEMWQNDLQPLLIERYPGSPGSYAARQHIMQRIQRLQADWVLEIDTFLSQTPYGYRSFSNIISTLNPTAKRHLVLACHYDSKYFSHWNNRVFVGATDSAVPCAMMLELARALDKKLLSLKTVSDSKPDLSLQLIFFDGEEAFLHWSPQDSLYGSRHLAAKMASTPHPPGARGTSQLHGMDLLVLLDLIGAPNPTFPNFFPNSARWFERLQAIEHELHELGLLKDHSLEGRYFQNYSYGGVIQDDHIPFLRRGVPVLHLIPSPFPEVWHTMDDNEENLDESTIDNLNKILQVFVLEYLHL
Procedure: (§1) QPCT or QPCTL dependent conversion of N-terminal glutamine to pyroglutamate of CD47 was monitored via MALDI-TOF MS. Test compounds were dissolved in 100% DMSO and serially diluted into clear 1,536-well microtiter plates. Enzymatic reactions were set up in assay buffer containing 20 mM Tris pH 7.5, 0.1 mM TCEP, 0.01% BSA, and 0.001% Tween20. […] The plates were incubated for 10 min in a humidified incubator at 24° C. Subsequently, 2.5 μL of CD47 peptide substrate surrogate (^19[…]^33) was added to each well (final concentration: 10 μM for QPCTL/20 μM for QPCT). The plates were mixed for 30 sec at 1,000 rpm and subsequently incubated for 40 min in a humidified incubator at 24° C. […] The plates were sealed with an adhesive foil, mixed for 30 s at 1,000 rpm and stored at room temperature until preparation of the MALDI target plates. […] QPCT or QPCTL activity was monitored by calculating the ratio between product and internal standard signals followed by normalization to high (100% activity) and low (0% activity) controls. Determination of compound potencies was obtained by fitting the dose-response data to a four-parameter logistical equation.

Row | SMILES | IC50 [nM]
12 | Cn1cnnc1C1CCN(c2c(C#N)cccc2-c2cncnc2)CC1 [compound 13] | 52
13 | Cn1cnnc1C1CCN(c2c(C#N)cccc2-c2cncc(C3CC3)c2)CC1 [compound 15] | 105
14 | COc1cncc(-c2cccc(C#N)c2N2CCC(c3nncn3C)CC2)c1 [compound 16] | 86
15 | Cn1cnnc1C1CCN(c2c(C#N)cccc2-c2cncc(F)c2)CC1 [compound 17] | 77
16 | Cn1cnnc1C1CCN(c2c(C#N)cccc2-c2ccc(Cl)nc2)CC1 [compound 18] | 357
17 | CC(C)Oc1cc(-c2cccc(C#N)c2N2CCC(c3nncn3C)CC2)cnc1F [compound 19] | 9
18 | Cn1cnnc1C1CCN(c2c(C#N)cccc2-c2cnc(F)c(F)c2)CC1 [compound 20] | 28
19 | Cn1cc2cc(-c3cccc(C#N)c3N3CCC(c4nncn4C)CC3)cnc2n1 [compound 22] | 3
20 | Cn1cnnc1C1CCN(c2c(C#N)cccc2-c2cnc3c(c2)NCCO3)CC1 [compound 24] | 56
21 | Cn1cnnc1C1CCN(c2c(C#N)cccc2-c2cnc3c(c2)OCO3)CC1 [compound 25] | 84
22 | Cn1cnnc1C1CCN(c2c(C#N)cccc2-c2cnc3n[nH]cc3c2)CC1 [compound 26] | 24

target: QPCTL (Homo sapiens (Human), UniProt Q9NXS2); assay: Assay A: biochemical QPCTL activity assay (MALDI-TOF MS); details: compounds of the invention, Table 2; read-out: Inhibition of QPCTL: IC50
Sequence (Q9NXS2 whole entry): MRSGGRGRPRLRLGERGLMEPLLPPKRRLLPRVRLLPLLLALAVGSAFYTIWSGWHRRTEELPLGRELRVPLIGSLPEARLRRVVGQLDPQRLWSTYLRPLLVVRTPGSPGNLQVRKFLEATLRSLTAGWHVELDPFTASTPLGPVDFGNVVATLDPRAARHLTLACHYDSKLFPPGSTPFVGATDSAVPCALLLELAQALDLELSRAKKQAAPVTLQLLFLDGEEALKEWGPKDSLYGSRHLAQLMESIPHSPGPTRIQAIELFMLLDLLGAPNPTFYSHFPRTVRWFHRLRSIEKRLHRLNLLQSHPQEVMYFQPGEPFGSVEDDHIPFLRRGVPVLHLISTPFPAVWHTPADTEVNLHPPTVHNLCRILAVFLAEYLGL
Procedure: as §1

Row | SMILES | IC50 [nM]
23 | Cn1cnnc1C1CCN(c2c(C#N)cccc2-c2cncnc2)CC1 [compound 13] | 15
24 | Cn1cnnc1C1CCN(c2c(C#N)cccc2-c2cncc(C3CC3)c2)CC1 [compound 15] | 28
25 | COc1cncc(-c2cccc(C#N)c2N2CCC(c3nncn3C)CC2)c1 [compound 16] | 22
26 | Cn1cnnc1C1CCN(c2c(C#N)cccc2-c2cncc(F)c2)CC1 [compound 17] | 15
27 | Cn1cnnc1C1CCN(c2c(C#N)cccc2-c2ccc(Cl)nc2)CC1 [compound 18] | 56
28 | CC(C)Oc1cc(-c2cccc(C#N)c2N2CCC(c3nncn3C)CC2)cnc1F [compound 19] | 1
29 | Cn1cnnc1C1CCN(c2c(C#N)cccc2-c2cnc(F)c(F)c2)CC1 [compound 20] | 5
30 | Cn1cc2cc(-c3cccc(C#N)c3N3CCC(c4nncn4C)CC3)cnc2n1 [compound 22] | 1
31 | Cn1cnnc1C1CCN(c2c(C#N)cccc2-c2cnc3c(c2)NCCO3)CC1 [compound 24] | 14
32 | Cn1cnnc1C1CCN(c2c(C#N)cccc2-c2cnc3c(c2)OCO3)CC1 [compound 25] | 14
33 | Cn1cnnc1C1CCN(c2c(C#N)cccc2-c2cnc3n[nH]cc3c2)CC1 [compound 26] | 5

system: SIRPα signalling induced by Raji cells; assay: Assay B: SIRPα signalling assay using Raji cells; assay type: cell-based, human; details: Homo sapiens, compounds of the invention, Table 4, read-out: Inhibition of SIRα signalling induced by Raji cells: IC50
Procedure: Bioassay reagent 1 of the PathHunter Bioassay detection kit (DiscoverX 93-0001) was added to each well of the plate using a multichannel pipette followed by a 15 min incubation at room temperature. Afterwards bioassay reagent 2 was added followed by 60 min incubation at room temperature (incubation in the dark).
The analysis of the data was performed using the luminescence signal generated by beta-galactosidase in the PathHunter reporter cell line. The luminescence measurement was done using a Pherastar Multi-Mode Reader.

Row | SMILES | IC50 [nM]
34 | Cn1cnnc1C1CCN(c2c(C#N)cccc2-c2cncnc2)CC1 [compound 13] | 782
35 | Cn1cnnc1C1CCN(c2c(C#N)cccc2-c2cncc(C3CC3)c2)CC1 [compound 15] | 736
36 | COc1cncc(-c2cccc(C#N)c2N2CCC(c3nncn3C)CC2)c1 [compound 16] | 625
37 | Cn1cnnc1C1CCN(c2c(C#N)cccc2-c2cncc(F)c2)CC1 [compound 17] | 1170
38 | Cn1cnnc1C1CCN(c2c(C#N)cccc2-c2ccc(Cl)nc2)CC1 [compound 18] | 2270
39 | CC(C)Oc1cc(-c2cccc(C#N)c2N2CCC(c3nncn3C)CC2)cnc1F [compound 19] | 53
40 | Cn1cnnc1C1CCN(c2c(C#N)cccc2-c2cnc(F)c(F)c2)CC1 [compound 20] | 147
41 | Cn1cc2cc(-c3cccc(C#N)c3N3CCC(c4nncn4C)CC3)cnc2n1 [compound 22] | 87
42 | Cn1cnnc1C1CCN(c2c(C#N)cccc2-c2cnc3c(c2)NCCO3)CC1 [compound 24] | 368
43 | Cn1cnnc1C1CCN(c2c(C#N)cccc2-c2cnc3c(c2)OCO3)CC1 [compound 25] | 566
44 | Cn1cnnc1C1CCN(c2c(C#N)cccc2-c2cnc3n[nH]cc3c2)CC1 [compound 26] | 427

system: not listed separately; assay: Assay C: permeability in CACO-2 cells; assay type: in vitro ADME; details: human, pH 7.2; Caco-2, apical to basolateral; compounds of the invention, Table 7
Procedure: Compounds are dissolved in appropriate solvent (like DMSO, 1-20 mM stock solutions). […] The transport solution (TL) is applied to the apical or basolateral donor side for measuring A-B or B-A permeability (3 filter replicates), respectively. Samples are collected at the start and end of experiment from the donor and at various time intervals for up to 2 hours also from the receiver side for concentration measurement by HPLC-MS/MS or scintillation counting. Sampled receiver volumes are replaced with fresh receiver solution.

Row | SMILES | Papp A→B [×10⁻⁶ cm/s] | Papp A→B at 2 h [×10⁻⁶ cm/s]
45 | Cn1cnnc1C1CCN(c2c(C#N)cccc2-c2cncnc2)CC1 [compound 13] | 1.6 | 
46 | Cn1cnnc1C1CCN(c2c(C#N)cccc2-c2cncc(C3CC3)c2)CC1 [compound 15] | 10.3 | 
47 | COc1cncc(-c2cccc(C#N)c2N2CCC(c3nncn3C)CC2)c1 [compound 16] | 4.5 | 
48 | Cn1cnnc1C1CCN(c2c(C#N)cccc2-c2cncc(F)c2)CC1 [compound 17] | 7.3 | 
49 | Cn1cnnc1C1CCN(c2c(C#N)cccc2-c2ccc(Cl)nc2)CC1 [compound 18] | 13.6 | 
50 | CC(C)Oc1cc(-c2cccc(C#N)c2N2CCC(c3nncn3C)CC2)cnc1F [compound 19] | 39 | 
51 | Cn1cnnc1C1CCN(c2c(C#N)cccc2-c2cnc(F)c(F)c2)CC1 [compound 20] | 22 | 
52 | Cn1cc2cc(-c3cccc(C#N)c3N3CCC(c4nncn4C)CC3)cnc2n1 [compound 22] | 0.2 | 
53 | Cn1cnnc1C1CCN(c2c(C#N)cccc2-c2cnc3c(c2)NCCO3)CC1 [compound 24] | 1 | 
54 | Cn1cnnc1C1CCN(c2c(C#N)cccc2-c2cnc3c(c2)OCO3)CC1 [compound 25] | 7.4 | 
55 | Cn1cnnc1C1CCN(c2c(C#N)cccc2-c2cnc3n[nH]cc3c2)CC1 [compound 26] |  | 0.4

same assay, conditions: human, pH 7.2; Caco-2; compounds of the invention, Table 7

Row | SMILES | efflux ratio | efflux ratio at 2 h
56 | Cn1cnnc1C1CCN(c2c(C#N)cccc2-c2cncnc2)CC1 [compound 13] | 11.9 | 
57 | Cn1cnnc1C1CCN(c2c(C#N)cccc2-c2cncc(C3CC3)c2)CC1 [compound 15] | 8.7 | 
58 | COc1cncc(-c2cccc(C#N)c2N2CCC(c3nncn3C)CC2)c1 [compound 16] | 12.2 | 
59 | Cn1cnnc1C1CCN(c2c(C#N)cccc2-c2cncc(F)c2)CC1 [compound 17] | 7.4 | 
60 | Cn1cnnc1C1CCN(c2c(C#N)cccc2-c2ccc(Cl)nc2)CC1 [compound 18] | 5 | 
61 | CC(C)Oc1cc(-c2cccc(C#N)c2N2CCC(c3nncn3C)CC2)cnc1F [compound 19] | 2 | 
62 | Cn1cnnc1C1CCN(c2c(C#N)cccc2-c2cnc(F)c(F)c2)CC1 [compound 20] | 3 | 
63 | Cn1cc2cc(-c3cccc(C#N)c3N3CCC(c4nncn4C)CC3)cnc2n1 [compound 22] | 50.6 | 
64 | Cn1cnnc1C1CCN(c2c(C#N)cccc2-c2cnc3c(c2)NCCO3)CC1 [compound 24] | 34 | 
65 | Cn1cnnc1C1CCN(c2c(C#N)cccc2-c2cnc3c(c2)OCO3)CC1 [compound 25] | 7.4 | 
66 | Cn1cnnc1C1CCN(c2c(C#N)cccc2-c2cnc3n[nH]cc3c2)CC1 [compound 26] |  | 48.6
